Assay results taken from patent publication US10704075B2, “Method for determining the reaction of a microorganism to its exposure to a chemical compound” (bioMérieux, priority 2015, dated 2020).
In brackets after ≈: the same amount, converted by molar mass.

Assays:
Type in all cases: cell-based
[1] = tested on: Escherichia coli strain ATCC 35421 called "EC21"; assay: Raman spectroscopy analysis of individual bacteria exposed to an antibiotic (method of the invention), strain EC21
Procedure: A test identical to that of Example 1 is conducted on another strain of Escherichia coli, the strain ATCC 35421 called “EC21” allows confirming the discriminatory nature of the measurement.
In order to illustrate the discriminating power of this method, the same test performed for a strain of Escherichia coli ATCC 35421 resistant to amoxicillin called “EC21” is also shown.
A solution containing the bacteria to be tested, EC10 or EC21, is used as test sample. This solution is obtained by suspending 5 10^7 CFU/mL in water in order to have a concentration potentially encountered in a clinical sample, for example a urine collection. This bacteria solution is distributed in 5 filter tubes (for example MICROCON (Centrifugal filters) YM100 from Millipore) at a rate of 150 μL per tube. A sufficient amount is added to each of these tubes for the final 250 μL of physiological medium allowing the growth constituted in this example of a mixture of PBS of final concentration of 1× (obtained from the PBS tablets of the reference A9162,0100 of the brand AppliChem), of a nutrient medium TSB 0.1× (for example obtained from Bouillon TSB-T […] A8523-10ML of Sigma-Aldrich) as follows: • c0=0 μg/mL • c1=2 μg/mL • c2=4 μg/mL • c3=8 μg/mL • c4=16 μg/mL
The 5 tubes obtained accordingly are incubated for 2 hours at 37° C. with stirring. Centrifugation at 1200 g for 8 minutes using a centrifuge adapted to the used containers (for example the model 8415C of the brand Eppendorf) then allows retrieving a bacterial pellet on the filter portion of each tube and eliminating the medium. The bacterial pellets are respectively resuspended in water in order to carry out a washing before being again pelletized by centrifugation (1200 g for 10 minutes) always on the filter portion of the tube. These pellets are distributed on a glass slide of the Marienfield type constituting the interface I (not functionalized in this configuration) by means of a swab in corresponding chambers noted C0 to C4. […]

[2] = tested on: Escherichia coli strain ATCC 35421 called "EC21"; assay: Reference methods, strain EC21; conditions: for phenotype according to the EUCAST / reference: from reference MIC
Procedure: A MIC>8 μg/mL can be assigned to this strain with this test, which is also consistent with the results obtained by the reference method.

[3] = tested on: Escherichia coli strain ATCC 25922 called "EC10"; assay: Reference methods (bioMérieux ETEST and VITEK card N233), strain EC10; conditions: for phenotype according to the EUCAST / reference: from reference MIC
Source text: In order to illustrate the performances obtained accordingly, the average score obtained for all the results that would be obtained with a combination of 5 spectra per concentration (N=5) out of a total set of total acquired spectra of 294 spectra (M=294) is shown in FIG. 4. […] The score indicates the percentage of the test samples that are assigned to a given class by the classifier described above. […] The strain can therefore be described as sensitive according to the invention with a high reliability on the basis of only a few individual bacteria analyses. The result is consistent with the reference methods [BioMérieux products ETEST® (antimicrobial susceptibility testing kit) GM 256 (ref. 412368) and VITEK® card N233 (Gram Negative Susceptibility card; ref. 413117)] which give as a result a MIC=1 μg/mL, which confirms that the bacterium is not resistant according to the EUCAST, its MIC not being strictly above the threshold defined by this organism.
A MIC comprised between 4 μg/mL and 8 μg/mL can therefore be assigned to this strain according to the assays. This variability to a dilution factor is very frequent in this type of assay, the EUCAST indicates, for example, ranges of MIC variations of [2-8]μg/mL for this strain ATCC 25922 during quality controls of the MIC disc diffusion tests, and is therefore consistent with expected results.
The detection of an effect for concentrations greater than 0.005 μg/mL is thus observed. An antibiotic effect of ciprofloxacin can therefore be assigned to the strain tested for concentrations greater than 0.005 μg/mL. This test would therefore define a concentration of 0.005 μg/mL as a MIC. A new test could possibly be performed by adding the lowest concentrations between 0 and 0.005 μg/mL if necessary. […] A test performed with a suitable etest (bioMérieux) allows measuring a MIC of 0.008 μg/mL which confirms that the obtained result is in accordance with the reference methods [BioMérieux products ETEST® CI 32 (antimicrobial susceptibility testing kit; ref. 412311) and VITEK® card N233 (Gram Negative Susceptibility card; ref. 413117)].

Row | Compound | percentage of performed tests that do not show a characteristic effect profile of the antibiotic agent ([1]; gentamicin 8 μg/mL, N=5, M=133) [%] | phenotype according to the EUCAST / reference [2] | MIC (reference methods, MICREF) ([2]; reference methods) [µg/mL] | MIC (reference methods, MICREF) ([3]; ETEST / VITEK card N233) [µg/mL] | phenotype according to the EUCAST / reference [3] | MIC ([1]; Escherichia coli, ATCC35421, Raman, tested 0, 4 and 8 μg/mL, N=11, read-out: MIC assigned by the method of the invention) [µg/mL] | category assigned to the vast majority of the measured groups ([1]; amoxicillin 4 and 8 μg/mL, N=11, FIG. 7) | MIC ([2]; Escherichia coli, ATCC35421, read-out: MIC (reference methods, MICREF)) [µg/mL] | MIC ([3]; Escherichia coli, ATCC25922, read-out: MIC (reference methods, MICREF)) [µg/mL]
1 | gentamicin | 100 | resistant | > 256 | 1 | not resistant |  |  |  | 
2 | CC1(C)S[C@@H]2[C@H](NC(=O)[C@H](N)c3ccc(O)cc3)C(=O)N2[C@H]1C(=O)O [amoxicillin] |  | resistant |  |  | sensitive | > 8 | without ATB effect | 256 (≈ 701 µM) | 6
